For ten compounds, EC50 and IC50 results are on record in patent US8362023B2, “Pyrazolo pyrimidines” (Hoffmann-La Roche Inc., priority 2011, dated 2013).

As usually defined, the EC50 is the midpoint of the concentration-response curve. What is called IC50 is the point on the concentration scale where inhibition reaches its midpoint.

Molecules are shown by their SMILES. Counter-ions that a name gives are not always drawn.

The subject of assay [1] is SW620 human colon cancer cells. Kind of assay: SW620 Cell Viability Assay. The assay is classed as cell-based. The settings on record: SW-620, 96 h, CellTiter-Glo Luminescent Cell Viability Assay, 4 days incubation, read-out: Cellular EC50 (μM) SW620. How it is done: SW620 Cell Viability Assay
1. Cell Plate Preparation: SW620 human colon cancer cells (known to express DYRK1B), obtained from ATCC, were seeded into 96-well plates at 3×10^3 cells/well in 50 μL of media. • Harvested the required number of cells (counts & viability determined by Guava Viacount). • Centrifuge cells to pellet and removed supernant. • Resuspended in growth media (50 μL/well) & pipetted thoroughly to break up clumps. • Setup for ˜100 wells/plate, therefore, VT=5 mL/plate @ […].
1A. Some cells (S—) were allowed to attach for 24 hrs, serum starved for 48 hrs, and then followed with test compound treatments.
Test compound solution were prepared in regular corresponding media supplemented with serum.
2. Test compound Preparation: Drugs were solubilized in either DMSO or media and prepared at various stock concentrations. • All compounds were incubated at 37° C. for 30 minutes and vortexed. • (5 mM stocks of test compound were prepared for non-soluble test compounds)
3. Test compound Plate Preparation: • The 10 mM test compound stock was diluted to a concentration of 100× the final Cmax concentration. • Then the test compound stock is diluted 50-fold in media and/or second test compound for a final Cmax concentration in the test compound plate. • The Cmax in the test compound plate (2% DMSO) is 2-fold higher than the final Cmax in the cell plate (60 μl, titrations were 1:3).
4. Viability Assay: This assay was performed as follows: • Transfer 50 μL of test compound solution per well from the test compound plate onto the cell plate prepared in Step #1. • Mix the plate with treated cells by pipetting up and down three times with 200 μL multi-channel pipette. • Incubate the cells in 5% CO2 incubator @ 37° C. for 4 days. • Run the CellTiter-Glo™ Luminescent Cell Viability Assay.
The results of this assay, given as EC50 values, indicate the concentration of test compound that inhibits tumor cell proliferation by 50%.
(Cellular ATP, detected with luciferase, serves as a proxy for viable cell number.)

Another assay has as its target T1, Human DYRK1A (Homo sapiens, UniProt Q13627).
T1 construct: purchased Invitrogen PV3997
The experiment in a line: DYRK1A Kinase TR-FRET (IMAP-Tb) Assay. Format: biochemical. The settings on record: TR-FRET (IMAP-Tb); ATP 70 μM; 37° C. for 60 minutes; averages of multiple runs; read-out: Enzyme IC50 (μM) DYRK1A. The text has this: DYRK1A Kinase TR-FRET (IMAP-Tb) Assay
The kinase TR-FRET (IMAP-Tb) assay uses a fluorescence labeled substrate peptide in the kinase reaction. Upon phosphorylation by the kinase, phosphopeptide is produced, which will be detected by the binding solution provided in IMAP TR-FRET binding kit. After the completion of the kinase reaction, the reaction will be stopped by adding the binding solution containing terbium tracer. This tracer is immobilized on the surface of the IMAP beads, which also contain metal ions on the beads that bind to the phospho-groups of the products. Thus the phosphorylated product of the reaction can enter into close proximity to the tracer, producing resonance energy transfer. Due to the long lifetime of terbium (Tb) fluorescence the detection can be run in time resolved mode, which virtually eliminates fluorescence interference from assay components or compounds.
The TR-FRET signal measurement from this assay, given as an IC50 measurement, is a measure of a test compound's ability to interfere with the phosphorylation of the peptide substrate, that is it inhibits the phosphorylation of the substrate peptide by DYRK1A, and is thus a measure of the test compound's ability to inhibit the activity of DYRK1A.
Materials and Reagents • 1. Human DYRK1A: from Invitrogen. Part #PV3997 • 2. Substrate Peptide: […] • 3. IMAP TR-FRET IPP Explorer Kit: from Molecular Devices. Part #R8157 • 4. Kinase Assay Buffer (KAB): 10 mM HEPES pH 7.0, 50 mM NaCl, 5 mM MgCl2, 1 mM DTT, 1 mM NaVO4, 200 ug/mL BSA (0.02%) • 5. Assay Plate: Remp polypropylene clear 384-well microplate. […] Detection Plate: Costa black 384-well microplate.
Assay Procedure: this Assay was Performed as Follows: • 1. Transfer 1.5 μL of 20× compound solution to each well of an assay plate. • 2. Add to each well 22.5 μL of KAB Buffer. • 3. Add to each well 3 μL of the solution of DYRK1A and ATP. […] Add to each well 3 μL of the substrate peptide. The assay concentration is 1.0 μM • 5. Incubate the assay plates at 37° C. for 60 minutes. • 6. Add 18 μL of Detection Solution (1:800 diluted Progress bead stock, 1:400 diluted Tb stock, 80% Buffer A, and 20% Buffer B) into each well of detection plates. • 7. Transfer 6 μL of assay solution from the assay plate to the detection plate. • 8. Shake detection plates for 30 minutes. • 9. Read plates in Envision with wavelength set at excitation 340 nm for Tb, emission 490 nm, and […] 520 nm. • 10.
A general note: In TR-FRET formats the signal depends on donor and acceptor labels being close together.

The next assay addresses T2, Human DYRK1B (Homo sapiens, UniProt Q9Y463).
T2 construct: purchased Invitrogen PR8350B (former PV4649)
The experiment in a line: DYRK1B Kinase TR-FRET (IMAP-Tb) Assay. The assay is classed as biochemical. The settings on record: TR-FRET (IMAP-Tb); ATP 70 μM; 37° C. for 60 minutes; averages of multiple runs; read-out: Enzyme IC50 (μM) DYRK1B. An excerpt:
DYRK1B Kinase TR-FRET (IMAP-Tb) Assay Assay Principle The kinase TR-FRET (IMAP-Tb) assay uses a fluorescence labeled substrate peptide in the kinase reaction. Upon phosphorylation by the kinase, phosphopeptide is produced, which will be detected by the binding solution provided in IMAP TR-FRET binding kit. After the completion of the kinase reaction, the reaction will be stopped by adding the binding solution containing terbium tracer. This tracer is immobilized on the surface of the IMAP beads, which also contain metal ions on the beads that bind to the phospho-groups of the products. Thus the phosphorylated product of the reaction can enter into close proximity to the tracer, producing resonance energy transfer. Due to the long lifetime of terbium (Tb) fluorescence the detection can be run in time resolved mode, which virtually eliminates fluorescence interference from assay components or compounds. The TR-FRET signal measurement from this assay, given as an IC50 measurement, is a measure of a test compound's ability to interfere with the phosphorylation of the peptide substrate, that is it inhibits the phosphorylation of the substrate peptide by DYRK1B, and is thus a measure of the test compound's ability to inhibit the activity of DYRK1B. IC50 is the amount of test compound that inhibits 50% of the activity of DYRK1B in this assay. In some cases where the IC50 was not determined, then the % inhibition at 10 μM test compound concentration may be reported. Materials and Reagents • 1. Human DYRK1B: from Invitrogen. Part #PR8350B (former PV4649) • 2. Substrate Peptide: in-house synthesized: RRRFRPASPLRGPPK • 3. IMAP TR-FRET IPP Explorer Kit: from Molecular Devices. Part #R8157 • 4. Kinase Assay Buffer (KAB): 10 mM HEPES pH 7.0, 50 mM NaCl, 5 mM MgCl2, 1 mM DTT, 1 mM NaVO4, 200 μg/mL BSA (0.02%) • 5. Assay Plate: Remp polypropylene clear 384-well microplate. Cat#23490-102 • 6. Detection Plate: Costa black 384-well microplate. Cat #3710 Assay Procedure: this Assay was Performed as Follows: • 1. Transfer 1.5 μL of 20× compound solution to each well of an assay plate. • 2. Add to each well 22.5 μL of KAB Buffer. • 3. Add to each well 3 μL of the solution of DYRK1B and ATP. […] Add to each well 3 μL of the substrate peptide. The assay concentration is 1.0 μM • 5. Incubate the assay plates at 37° C. for 60 minutes. • 6. Add 18 μL of Detection Solution (1:800 diluted Progress bead stock, 1:400 diluted Tb stock, 80% Buffer A, and 20% Buffer B) into each well of detection plates. • 7. Transfer 6 μL of assay solution from the assay plate to the detection plate. • 8. Shake detection plates for 30 minutes. • 9. Read plates in Envision with wavelength set at excitation 340 nm for Tb, emission 490 nm, and […] 520 nm. • 10. Calculation: TR-FRET Signal=(Reading at […]/Reading at 490 nM)×2000000

T2 sequence (Q9Y463 whole entry): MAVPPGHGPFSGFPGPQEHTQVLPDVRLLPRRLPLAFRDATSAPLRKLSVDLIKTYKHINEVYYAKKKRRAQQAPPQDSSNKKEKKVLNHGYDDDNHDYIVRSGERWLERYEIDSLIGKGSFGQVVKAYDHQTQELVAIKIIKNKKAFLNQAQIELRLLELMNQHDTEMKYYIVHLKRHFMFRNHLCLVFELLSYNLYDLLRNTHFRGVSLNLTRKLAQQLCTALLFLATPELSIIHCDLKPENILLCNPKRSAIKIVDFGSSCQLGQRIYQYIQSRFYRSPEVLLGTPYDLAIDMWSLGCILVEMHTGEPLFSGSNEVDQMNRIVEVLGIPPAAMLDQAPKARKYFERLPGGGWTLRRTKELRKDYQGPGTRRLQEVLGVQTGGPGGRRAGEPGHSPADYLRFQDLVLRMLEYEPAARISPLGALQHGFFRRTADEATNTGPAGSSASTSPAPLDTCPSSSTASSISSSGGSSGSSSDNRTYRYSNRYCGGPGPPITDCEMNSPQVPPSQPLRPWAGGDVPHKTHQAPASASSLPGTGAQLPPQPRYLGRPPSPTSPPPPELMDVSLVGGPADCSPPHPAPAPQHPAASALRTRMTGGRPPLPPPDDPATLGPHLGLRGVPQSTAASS

With `Clc1cccc(CNc2nccc(-c3n[nH]c4nc(NCCN5CCOCC5)ncc34)n2)c1` [Example 62, {3-[2-(3-Chloro-benzylamino)-pyrimidin-4-yl]-1H-pyrazolo[3,4-d]pyrimidin-6-yl}-(2-morpholin-4-yl-ethyl)-amine; hydrochloride], in assay [1], the EC50 is above 10 µM. For the same compound, the IC50 came to 0.0384 µM at Human DYRK1A and 0.0586 µM at Human DYRK1B.
As for `N[C@H]1CC[C@H](Nc2ncc3c(-c4cccc(NCc5ccccc5)n4)n[nH]c3n2)CC1` [Example 49, N-[3-(6-Benzylamino-pyridin-2-yl)-1H-pyrazolo[3,4-d]pyrimidin-6-yl]-cyclohexane-1,4-diamine], the EC50 in assay [1] was 1.71 µM. Also, the IC50 at Human DYRK1A came to 0.0124 µM; at Human DYRK1B it was 0.101 µM.
`NCC(Nc1nccc(-c2n[nH]c3nc(NCCN4CCOCC4)ncc23)n1)c1cccc(Cl)c1` (stereo not drawn) [Example 76, 1-(3-Chloro-phenyl)-N1-{4-[6-(2-morpholin-4-yl-ethylamino)-1H-pyrazolo[3,4-d]pyrimidin-3-yl]-pyrimidin-2-yl}-ethane-1,2-diamine; hydrochloride]: in assay [1], the EC50 was determined as 0.14 µM. The figures for the IC50 on Human DYRK1A and on Human DYRK1B were 0.0076 µM and 0.0121 µM, respectively.
For `NCC(Nc1cccc(-c2n[nH]c3nc(N[C@H]4CC[C@H](N)CC4)ncc23)n1)c1ccccc1` (stereo partly drawn) [Example 74, N-{3-[6-(2-Amino-1-phenyl-ethylamino)-pyridin-2-yl]-1H-pyrazolo[3,4-d]pyrimidin-6-yl}-cyclohexane-1,4-diamine; hydrochloride], the EC50 in assay [1] was above 10 µM. Moreover, the IC50 is 0.0046 µM on Human DYRK1A and below 0.0046 µM at Human DYRK1B.
In the same order, the values of `c1ccc(CNc2nccc(-c3n[nH]c4nc(NCCN5CCOCC5)ncc34)n2)cc1` [Example 61, [3-(2-Benzylamino-pyrimidin-4-yl)-1H-pyrazolo[3,4-d]pyrimidin-6-yl]-(2-morpholin-4-yl-ethyl)-amine; hydrochloride] are above 10 µM, 0.061 µM and 0.0958 µM.
Turning to `Clc1ccc(CNc2nccc(-c3n[nH]c4nc(NCCN5CCOCC5)ncc34)n2)cc1` [Example 64, {3-[2-(4-Chloro-benzylamino)-pyrimidin-4-yl]-1H-pyrazolo[3,4-d]pyrimidin-6-yl}-(2-morpholin-4-yl-ethyl)-amine; hydrochloride], the EC50 in assay [1] was above 10 µM. Moreover, the IC50 at Human DYRK1A amounted to 0.242 µM; on Human DYRK1B it was 0.353 µM.
With `c1cc(NCc2ccsc2)nc(-c2n[nH]c3nc(NCCN4CCOCC4)ncc23)c1` [Example 60, (2-Morpholin-4-yl-ethyl)-(3-{6-[(thiophen-3-ylmethyl)-amino]-pyridin-2-yl}-1H-pyrazolo[3,4-d]pyrimidin-6-yl)-amine], the EC50 in assay [1] was above 10 µM. For the same compound, the values for the IC50 on Human DYRK1A and at Human DYRK1B were 0.785 µM and 0.234 µM, respectively.
`NCC(Nc1nccc(-c2n[nH]c3nc(NCCN4CCOCC4)ncc23)n1)c1ccsc1` (stereo not drawn) [Example 82, N1-{4-[6-(2-Morpholin-4-yl-ethylamino)-1H-pyrazolo[3,4-d]pyrimidin-3-yl]-pyrimidin-2-yl}-1-thiophen-3-yl-ethane-1,2-diamine; hydrochloride]: in assay [1], the EC50 worked out at 0.27 µM. For the same compound, the figures for the IC50 at Human DYRK1A and on Human DYRK1B were 0.005 µM and 0.012 µM, respectively.
For `N[C@H]1CC[C@H](Nc2ncc3c(-c4ccnc(NCc5cccc(Cl)c5)n4)n[nH]c3n2)CC1` [Example 71, N-{3-[2-(3-Chloro-benzylamino)-pyrimidin-4-yl]-1H-pyrazolo[3,4-d]pyrimidin-6-yl}-cyclohexane-1,4-diamine; hydrochloride], the EC50 in assay [1] was 0.027 µM. Moreover, the IC50 at Human DYRK1A amounted to 0.0046 µM; on Human DYRK1B, 0.006 µM.
As to `N[C@H]1CC[C@H](Nc2ncc3c(-c4cccc(NCc5ccsc5)c4)n[nH]c3n2)CC1` [Example 58, N-(3-{3-[(Thiophen-3-ylmethyl)-amino]-phenyl}-1H-pyrazolo[3,4-d]pyrimidin-6-yl)-cyclohexane-1,4-diamine], the EC50 in assay [1] turned out to be 6.41 µM. Moreover, the IC50 on Human DYRK1A was determined as 2.61 µM; at Human DYRK1B, 0.762 µM.
